Laboratory results from patent US20230339968A1, “KRAS Gl2C INHIBITORS” (Eli Lilly and Company, priority 2019, published 2023).
pIC50: −log10 of the molar value. Where two headings read alike, the source gives them in different places.

Experiments:
H1792 (lung) = assay: CellTiterGlo Cell Proliferation Assay (2D), H1792; assay type: cell-based; details: Homo sapiens, NCI-H1792, 96 hours
Description: (§1) The purpose of this assay is to evaluate the growth of KRas G12C mutant tumor lines following treatment with a test compound. A panel of tumor cell lines harboring KRas G12C or other KRas mutations are collected (Table 25). All cell lines are from ATCC or other sources indicated.
(§2) Typically cells are cultured in RPMI1640 or Dulbecco's modified Eagle's medium (DMEM, GIBCO) supplemented with 10% FBS (GIBCO, Invitrogen). […] The cells are treated with compound for 96 hours, and then are analyzed for viability using the CellTiterGlo® Luminescent Cell Viability Assay® (Promega #G7572 for 2D) according to manufacturer's instructions and an EnVision™ plate reader. Nonlinear regression and sigmoidal dose-response curves are used to calculate the half maximal inhibitory concentration (IC50) with GraphPad Prism 4® software.

Calu-1 (lung) = assay: CellTiterGlo Cell Proliferation Assay (2D), Calu-1; assay type: cell-based; details: Homo sapiens, 96 hours
Description: as §1, §2

UM-UC-3 (bladder) = assay: CellTiterGlo Cell Proliferation Assay (2D), UM-UC-3; assay type: cell-based; details: Homo sapiens, UMUC3, 96 hours
Description: as §1, §2

active KRas = active KRas (Homo sapiens, UniProt P01116, G12C); assay: In vivo target inhibition, active KRas ELISA of tumor lysates, lung cancer H358 xenograft model; parameters: from tissue; host or cells: H358 xenograft tumours grown subcutaneously in nude female mice; details: NCI-H358, mouse
Chain of active KRas (P01116 1-188 isoform P01116-2 G12C): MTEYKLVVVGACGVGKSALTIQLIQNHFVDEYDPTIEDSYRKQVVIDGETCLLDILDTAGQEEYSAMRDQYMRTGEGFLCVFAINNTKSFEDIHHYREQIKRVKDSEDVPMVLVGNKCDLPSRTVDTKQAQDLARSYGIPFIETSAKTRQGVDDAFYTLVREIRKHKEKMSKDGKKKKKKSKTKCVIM
Description: The purpose of these assays is to evaluate in vivo target inhibition of an orally administered test compound. Human lung cancer H358 cells, or pancreatic cancer MiaPaca-2 cells, are implanted into nude mice xenograft tumor models. H358 or MiaPaca-2 cells (10×106 in a 1:1 Matrigel® mix, 0.2 mL total volume) are implanted by subcutaneous injection in hind leg of nude female mice (Harlan Laboratories). […] Treatment is initiated with oral administration (gavage) of a test compound or vehicle (20% Captisol®, 25 mM phosphate, pH 2.0 in 0.2 mL) when the tumor size reaches approximately 300 mg.
For in vivo target inhibition and PD analysis, tumors are ground by mortar and pestle on dry ice and tumor fragments are added to 800 μL of lysis buffer containing 1% Triton™ X-100, 25 mM Tris pH7.5, 150 mM sodium chloride, 1 mM EDTA, and 1 mM EGTA with Halt protease and phosphatase inhibitor cocktail (Thermo Scientific, cat. no. 1861281) in lysing matrix D tubes (MP Biomedical®, cat. no. 6913-500) with one additional large bead (MP Biomedical® ¼″ ceramic sphere bead cat. no. 6540-412) per tube. Tumor fragments are homogenized in a Thermo Bio101® fast prep (FP120) at setting 4 for […] while cold for a total of 2 times. Lysates are spun at 14,000 rpm for 10 minutes at 4° C. to clarify. Protein estimation is done on the lysate supernatant using a BioRad Dc® protein assay and lysates are diluted in complete lysis/binding buffer from the Ras GTPase Chemi ELISA Kit® (Active Motif, cat. no. 52097). The active KRas ELISA is performed as follows: glutathione-coated ELISA wells are incubated with diluted RAF1-GST in complete lysis/binding buffer for 1 hour at 4° C. with gentle agitation. Wells are washed 3 times with wash buffer and 100 μg of lysates are added to each well and incubated at ambient temperature for 1 hour with mild agitation. The wells are washed an additional 3 times, then primary antibody, diluted in antibody binding buffer, is added to each well. The plates are incubated for 1 hour. The wells are washed 3 more times before adding HRP-conjugated secondary antibody, diluted in antibody binding buffer, to each well. The plates are incubated at ambient temperature for 1 hour. ELISA wells are washed 4 times, chemiluminescent reagent is added and then luminescence is read. For pERK Meso Scale Discovery ELISA, 25 μg of protein containing 0.1% SDS is used; Meso Scale Discovery Whole Cell Lysate Kit for pERK is provided by Meso Scale Discovery.
The purpose of this assay is to evaluate the dose dependent in vivo target inhibition and pharmacodynamic effects in a lung cancer model. The test compound is dosed in lung cancer H358 mouse xenograft model at a dose range from 12.5 to 100 mg/kg. The tumor samples are collected 8 hours post a single dose. The tumor lysates are prepared and the inhibition of pERKand active KRas is measured as described above.
The purpose of this assay is to evaluate the time dependent in vivo target inhibition and pharmacodynamic effects in a lung cancer model. […] After a single dose, the tumor samples are harvested at 2, 4, 8, 12 and 24 hour post doing. The tumor lysates are prepared and the inhibition of pERK and active KRas is measured as described above.

SW1463 (colon) = assay: CellTiterGlo Cell Proliferation Assay (2D), SW1463; assay type: cell-based; details: Homo sapiens, 96 hours
Description: as §1, §2

H358 xenograft = assay: Anti-tumor growth activity in lung cancer H358 xenograft mouse model; assay type: in vivo; details: 30 mg/kg PO, BID
Description: The purpose of this assay is to determine anti-tumor activities of test compounds (Example 34, 35, and 36) in a lung cancer H358 mouse xenograft model. H358 lung tumor cells (10×10^6) are implanted by subcutaneous injection in hind leg of nude female mice (Taconic Biosciences). A total of 4 mice in each group are used for the efficacy study. Treatment is initiated with oral administration (gavage) of the test compound or vehicle (20% Captisol®, 25 mM phosphate, pH 2.0 in 0.2 mL volume) once or twice daily for 28 days when the tumor size reaches approximately 300 mg. Tumor growth and body weight are monitored over time to evaluate efficacy and signs of toxicity. […] No significant animal body weight loss was observed through the whole study for these compounds.

MiaPaca-2 (pancr) = assay: CellTiterGlo Cell Proliferation Assay (2D), MiaPaca-2; assay type: cell-based; details: Homo sapiens, MIA PaCa-2, 96 hours
Description: as §1, §2

HCC44 (lung) = assay: CellTiterGlo Cell Proliferation Assay (2D), HCC44; assay type: cell-based; details: Homo sapiens, 96 hours
Description: as §1, §2

H2030 (lung) = assay: CellTiterGlo Cell Proliferation Assay (2D), H2030; assay type: cell-based; details: Homo sapiens, NCI-H2030, 96 hours
Description: as §1, §2

H2122 (lung) = assay: CellTiterGlo Cell Proliferation Assay (2D), H2122; assay type: cell-based; details: Homo sapiens, NCI-H2122, 96 hours
Description: as §1, §2

H358 (lung) = assay: CellTiterGlo Cell Proliferation Assay (2D), H358; assay type: cell-based; details: Homo sapiens, NCI-H358, 96 hours
Description: as §1, §2

C=CC(=O)N1CCN2C(=O)c3cc(F)c(-c4ccc(F)c5sc(N)c(C#N)c45)c(Cl)c3OCC[C@H]2C1 [Example 35, 4-[(13aS)-10-Chloro-8-fluoro-6-oxo-2-prop-2-enoyl-1,3,4,12,13,13a-hexahydropyrazino[2,1-d][1,5]benzoxazocin-9-yl]-2-amino-7-fluoro-benzothiophene-3-carbonitrile] was tested, and the pIC50 (H1792 (lung)) was 5.85, the inhibition at 10 µM (H1792 (lung); 10 μM) was 81.7% and the pIC50 (Calu-1 (lung)) was 6.32. The inhibition at 10 µM (Calu-1 (lung); 10 μM) was 56%, the pIC50 (UM-UC-3 (bladder)) was 5.96 and the inhibition at 10 µM (UM-UC-3 (bladder); 10 μM) was 80.4%. It also gave an inhibition at 12.5 mg/kg (active KRas; po, read-out: % Inhibition Active RAS, H358 xenograft mice, single oral dose 12.5 mg/kg, 8 hours) of 81%, an inhibition at 25 mg/kg (active KRas; po, read-out: % Inhibition Active RAS, H358 xenograft mice, single oral dose 25 mg/kg, 8 hours) of 73.4% and an inhibition at 50 mg/kg (active KRas; po, read-out: % Inhibition Active RAS, H358 xenograft mice, single oral dose 50 mg/kg, 8 hours) of 94%. The inhibition at 100 mg/kg (active KRas; po, read-out: % Inhibition Active RAS, H358 xenograft mice, single oral dose 100 mg/kg, 8 hours) was 91.9%, the inhibition at 30 mg/kg (active KRas; read-out: % Inhibition of Active Ras, H358 model, single dose 30 mg/kg, 2 h) was 7.6% and the inhibition at 30 mg/kg (active KRas; read-out: % Inhibition of Active Ras, H358 model, single dose 30 mg/kg, 4 h) was 65.7%. It also gave an inhibition at 30 mg/kg (active KRas; read-out: % Inhibition of Active Ras, H358 model, single dose 30 mg/kg, 8 h) of 80.2%, an inhibition at 30 mg/kg (active KRas; read-out: % Inhibition of Active Ras, H358 model, single dose 30 mg/kg, 12 h) of 39.3% and an inhibition at 30 mg/kg (active KRas; read-out: % Inhibition of Active Ras, H358 model, single dose 30 mg/kg, 24 h) of 54.9%. For the same compound, the pIC50 (SW1463 (colon)) was 8.30, the inhibition at 10 µM (SW1463 (colon); 10 μM) was 94.3% and the “% Regression (Day 12)” value (H358 xenograft; Day 12) was −72.14%. The “% Regression (Day 26)” value (H358 xenograft; Day 26) was −67.68%, the pIC50 (MiaPaca-2 (pancr)) was 7.96 and the inhibition at 10 µM (MiaPaca-2 (pancr); 10 μM) was 85.8%. The pIC50 (HCC44 (lung)) was 5.65, the inhibition at 10 µM (HCC44 (lung); 10 μM) was 64.3% and the pIC50 (H2030 (lung)) was under 5.00. The inhibition at 10 µM (H2030 (lung); 10 μM) was 40.3%, the pIC50 (H2122 (lung)) was 6.05 and the inhibition at 10 µM (H2122 (lung); 10 μM) was 79.7%. For the same compound, the pIC50 (H358 (lung)) was 8.70 and the inhibition at 10 µM (H358 (lung); 10 μM) was 96.4%.
